Data taken from patent US20120034613A1, “Apparatus and Method for Testing Relationships Between Gene Expression and Physical Appearance of Skin” (NSE Products, Inc., priority 2010, published 2012).

What was measured:
[1] = tested on: facial skin; experiment: Cutometer measurement of extensibility of the skin, 12 week clinical study; format: in vivo, human; details: for Cutometer Extensibility Mean: Baseline mean 1.15
Description: (§1) A single cutometer measurement was taken on the right side of the subject's face, in line with the corner of the eye and the edge of the nostril, to measure the extensibility of the skin. All clinical and corneometer measurements and evaluations were taken at baseline, week 1 (visit 2), week 4 (visit 3), week 8 (visit 4) and week 12 (visit 5). Ultrasound and cutometer measurements and evaluations were taken at baseline, week 4 (visit 3), week 8 (visit 4) and week 12 (visit 5). Completed patient's diaries were reviewed for compliance at each visit. Mean clinical grading and instrumentation scores at each visit were statistically compared to baseline scores using paired t-test. Changes from baseline were considered significant at the p≦0.05 level. Mean percent change from baseline and incidence of positive responders were calculated for all attributes. Comparisons, based on the average from baseline, were made between the test materials using analysis of variance (ANOVA).

[2] = tested on: stratum corneum; experiment: Corneometry, moisture content of the stratum corneum, 12 week clinical study; format: in vivo, human; details: Left Ocular Bone; for Corneometer Mean: Baseline mean 56.49
Description: as §1, with “Corneometry measurements were” for “A single cutometer measurement was”, “each” for “the right side of the”, “left ocular bone (in” for “face, in”, “pupil)” for “the corner of the eye and the edge of the nostril,”, “moisture content” for “extensibility”, “stratum corneum.” for “skin.”

[3] = tested on: human equivalent skin tissue; experiment: RT-rt-PCR (TaqMan Low Density Arrays) gene expression confirmation, agent-exposed vs unexposed skin model; format: cell-based; details: Salicin 0.5% vs. Untreated Control, HPRT as Endogenous Control Gene
Procedure: Preferably this is done with the same skin model as used with the microarray technology for measuring global gene expression. The qualities of the agent (concentration, solvent, etc.) should normally be the same.
In some embodiments, the agent tested is salicin at a concentration of 0.5% salicin, available from Symrise Corporation (Teterborro, N.J.). The salicin is dissolved in water. Affymetrix microarray testing provides results for thousands of genes, whereas RT-rt-PCR testing provides results for a smaller gene group. For RT-rt-PCR testing, about 90 genes are tested at a time for this particular experimental design (other designs may test as many as 390 at a time on the equipment identified below). The experimenter may choose this number based on cost.
To implement this step, RT-rt-PCR is conducted for specific genes known to be involved in skin aging. In one embodiment Custom TaqMan® Low Density Arrays (TLDA's) were configured using Applied Biosystems validated gene expression assays. The validated gene expression assays contain a TaqMan® fluorescent probe and primers for each target gene. Genes for the TLDA cards are selected based on either, published literature describing the genes functional role in skin cell biology and aging and/or the previous Affymetrix testing results. (See Tables 1-4). Five endogenous control genes may be included on each card. Thus, when a particular gene assembly is tested with RT-rt-PCR, the data resulting may cover more than just the set of genes as in Table 3.
(High-Capacity cDNA Reverse Transcription Kits for 200 and 1000 Reactions Protocol (October, 2006)). cDNA was mixed with TaqMan® Universal Master Mix without UNG and loaded into the wells of the TLDA cards. The cards are run using an Applied Biosystems 7900HT instrument according to the manufacturer's cycling parameters.
As with the microassay, the analysis is done with a skin model exposed to the agent and a reference that is not exposed to the agent. The skin model not exposed to the agent may be used for calibration. The skin model may be human equivalent skin tissue. The target genes get normalized to a stable endogenous control (genes that are invariants in all cell types such as […]). This normalization is to account for variations that may occur during sample loading. The unexposed information gathered is used for comparison against the tested sample.
The formula for ΔCT (delta cycle threshold) is CT (target) minus CT (endogenous control gene). (ΔCT=CT (target)−CT (endogenous control gene)). The test system, data processing system 710 stores the data then uses process application modules 720 to take the CT values for both the exposed and unexposed and get a ΔΔCT value, which is reported for that specific gene in a log ratio scale. […] In one embodiment, data analysis is carried out according to the RQ analysis method using RQ Manager and StatMiner (v3.1) software programs.
At least part of the comparing of the data is performed by a computer system, such as the data processing system 710 (see FIG. 7) for performing data access and storage and various computations specified by software (process application modules 720) corresponding to the functions occurring at various described steps of this method. Additional process application modules 722 perform a parametric t-test with a Benjamini and Hochberg false discovery rate correction is performed to identify genes with a statistically significant p value equal to or less than 0.05. The up or down regulation of the gene is also identifiable from the RT-rt-PCR analysis. Results of the change in threshold cycle (ΔCT) values between the exposed and unexposed human skin tissues are calculated by a software program. The selected genes will have a cycle threshold of biological relevance. For these experiments, the selected genes have a cycle threshold of less than about <35, which is a value of biological relevance. […]

OCc1ccccc1O[C@@H]1O[C@H](CO)[C@@H](O)[C@H](O)[C@H]1O [Salicin, 2-(Hydroxymethyl)phenyl β-D-glucospyranoside]
Cutometer Extensibility Mean ([1]; Week 4): 1.17 | Cutometer Extensibility % Change ([1]; Week 4 vs Baseline): (1.8%) | Cutometer Extensibility Mean ([1]; Week 8): 1.17 | Cutometer Extensibility % Change ([1]; Week 8 vs Baseline): (1.3%) | Cutometer Extensibility Mean ([1]; Week 12): 1.26 | Cutometer Extensibility % Change ([1]; Week 12 vs Baseline): (9.6%) | Corneometer Mean ([2]; Week 1): 60.54 | Corneometer % Change ([2]; Week 1 vs Baseline): (7.3%) | Corneometer Mean ([2]; Week 4): 62.49 | Corneometer % Change ([2]; Week 4 vs Baseline): (10.6%) | Corneometer Mean ([2]; Week 8): 63.91 | Corneometer % Change ([2]; Week 8 vs Baseline): (13.1%) | Corneometer Mean ([2]; Week 12): 52.23 | Corneometer % Change ([2]; Week 12 vs Baseline): (−7.5%) | CAT gene expression Direction [3]: down | CAT gene expression Log10RG [3]: −0.4768 | COL4A1 gene expression Direction [3]: up | COL4A1 gene expression Log10RG [3]: 0.2086 | DSC3 gene expression Direction [3]: down | DSC3 gene expression Log10RG [3]: −0.2938 | DSP gene expression Direction [3]: down | DSP gene expression Log10RG [3]: −0.2223 | FN1 gene expression Direction [3]: up | FN1 gene expression Log10RG [3]: 0.2411 | FOXO1 gene expression Direction [3]: up | FOXO1 gene expression Log10RG [3]: 0.2383 | IL6 gene expression Direction [3]: up | IL6 gene expression Log10RG [3]: 0.9322 | ITGB1 gene expression Direction [3]: up | ITGB1 gene expression Log10RG [3]: 9.36E−02 | ITGB4 gene expression Direction [3]: down | ITGB4 gene expression Log10RG [3]: −0.8283 | KRT1 gene expression Direction [3]: down | KRT1 gene expression Log10RG [3]: −1.112 | KRT5 gene expression Direction [3]: down | KRT5 gene expression Log10RG [3]: −0.445 | LOR gene expression Direction [3]: down | LOR gene expression Log10RG [3]: −1.921 | PRKCA gene expression Direction [3]: up | PRKCA gene expression Log10RG [3]: 0.2749 | S100A8 gene expression Direction [3]: down | S100A8 gene expression Log10RG [3]: −0.6307 | S100A9 gene expression Direction [3]: down | S100A9 gene expression Log10RG [3]: −0.6513 | SDC1 gene expression Direction [3]: down | SDC1 gene expression Log10RG [3]: −0.3961 | SMAD7 gene expression Direction [3]: up | SMAD7 gene expression Log10RG [3]: 0.2325 | SOD2 gene expression Direction [3]: up | SOD2 gene expression Log10RG [3]: 0.3025 | TNC gene expression Direction [3]: up | TNC gene expression Log10RG [3]: 0.1429 | ITGB1 gene expression Log10RG ([3]; listed as salicin): 0.09356
